Data from patent US11254671B2, “Chemical compounds” (GLAXOSMITHKLINE INTELLECTUAL PROPERTY DEVELOPMENT LIMITED, priority 2017, dated 2022).
Where “and” joins values, the source holds several entries; their conditions need not be identical. Identical values can stand only once.

biological target: T1, mTOR (Homo sapiens, UniProt P42345); assay: mTOR kinobeads assay (competition-binding assay); settings: HuT-78 cell extract, endogenously expressed mTOR, bead-immobilized capturing ligand; mean of multiple experiments; read-out: mean pIC50, affinity for mTOR (converted)
T1 construct: capturing of endogenously expressed target proteins from cell extracts by a bead-immobilized capturing ligand; endogenous in cells; host or cells: HuT-78 cells (ECACC 88041901), cell lysate
Method: The affinity of test compounds for mTOR was determined in the mTOR kinobeads assay. This is a competition-binding assay based on the capturing of endogenously expressed target proteins from cell extracts by a bead-immobilized capturing ligand in presence of the test compound.
HuT-78 cells (European Collection of Authenticated Cell Cultures, 88041901) were cultured according to vendor's instructions. Frozen cell pellets were homogenized in 3× pellet volumes lysis buffer (50 mM Tris-HCl, 0.4% (v/v) Igepal-CA630, 5% glycerol, 150 mM NaCl, 1.5 mMMgCl2, 25 mM NaF, 1 mM sodium vanadate, 1 mM DTT, pH 7.5, supplemented with EDTA-free protease inhibitor tablet (Roche)). The sample was dispersed using a Dounce homogenizer, kept rotating for 30 min at 4° C., and centrifuged for 10 min at 20 000 g at 4° C. The supernatant was centrifuged again for 1 h at 145 000 g. The protein concentration was determined by Bradford assay (BioRad), aliquots were snap frozen in liquid nitrogen and stored at −80° C.
The capturing matrices were generated by derivatizing N-hydroxysuccinimide (NHS) activated Sepharose 4 beads (GE Healthcare) with the functionalized ligands Compound A and Compound C at a ligand density of 5 mM. Remaining NHS-groups were blocked with ethanolamine.
For the mTOR kinobeads assay the matrices were combined in a 1:1 ratio and equilibrated in DP buffer (50 mM Tris-HCl (pH 7.5), 0.4% (v/v) Igepal-CA630, 5% (v/v) glycerol, 150 mM NaCl, 1.5 mM MgCl2, 25 mM NaF, 1 mM Na3VO4, 1 mM dithiothreitol). All steps of the mTOR kinobeads assay were performed at 4° C. or on ice. The cell lysate was diluted with DP buffer to a final concentration of 5 mg/ml and a final detergent concentration of 0.4% (v/v) Igepal-CA630. For the assay 250 μg cell lysate and 2.5 μl capturing matrix per well (final assay volume: 75 μl) were incubated in the presence of test compounds in a 384-well filter plate (MultiScreenHTS HV Filter Plate, 0.45 μm, MZHVNOW50, Merck Millipore). Each plate contained 16 positive (100 μM Compound B) and 16 negative (2% v/v DMSO) control wells. Compounds were tested in a concentration-response applying 1:3 or 1:4 dilution steps for in total 11 data points. DMSO concentration was 2% (v/v). After 2 h incubation on an overhead shaker (Roto-Shake Genie, Scientific Industries Inc.) at 4° C. the non-bound fraction was removed by washing the beads with DP buffer. Proteins retained on the beads were eluted in SDS sample buffer (200 mM Tris (pH 7.4), 250 mM Trizma Base, 4% (w/v) SDS, 20% (v/v) glycerol, 0.01% (w/v) bromophenol blue, 50 mM dithiothreitol) into a collection plate (384 well polypropylene microplate, V-shape, Greiner, 781 280). Eluates were spotted on nitrocellulose membranes (400 nl per spot) using an automated pin-tool liquid transfer (Biomek FX, Beckman). After drying, the membranes were rehydrated in 20% (v/v) ethanol and blocked by incubation with Odyssey blocking buffer (LICOR, 927-40000) for 1 h at room temperature. Blocked membranes were incubated overnight at 25° C. with Odyssey blocking buffer supplemented with a specific anti-mTOR antibody (Cell Signaling, 2972; 1:500) and 0.4% TWEEN-20. Then the membranes were washed in PBST buffer and incubated for 60 minutes at room temperature with the detection antibody (IRDye™ labelled antibody from LI-COR) diluted in Odyssey blocking buffer (LICOR 927-40000) containing 0.2% TWEEN-20. Then the membranes were washed with PBST and finally rinsed twice with PBS buffer to remove residual Tween-20. The membranes were then scanned with the Odyssey® Infrared Imaging System (LI-COR Biosciences). Fluorescence signals were recorded and analyzed according to the instructions of the manufacturer. Concentration response curves were computed with the software Activity Base. All data were normalized to the mean of 16 high (negative control) and 16 low (positive control) control wells on each plate. […]

Row | Compound | IC50
1 | CNCc1cc2nc(-c3cc(C(C)(C)S(C)(=O)=O)cc(N4[C@@H]5CC[C@H]4COC5)n3)ccc2[nH]1 [Example 3, 1-(5-(6-((1R,5S)-3-oxa-8-azabicyclo[3.2.1]octan-8-yl)-4-(2-(methylsulfonyl)propan-2-yl)pyridin-2-yl)-1H-pyrrolo[3,2-b]pyridin-2-yl)-N-methylmethanamine] | 2.51 to 316 nM
2 | CNCc1cc2nc(-c3cc(C(C)(C)S(C)(=O)=O)cc(N4C5CCCC4COC5)n3)ccc2[nH]1 [Example 5, 1-(5-(6-(3-oxa-9-azabicyclo[3.3.1]nonan-9-yl)-4-(2-(methylsulfonyl)propan-2-yl)pyridin-2-yl)-1H-pyrrolo[3,2-b]pyridin-2-yl)-N-methylmethanamine] | 2.51 to 316 nM
3 | CNCc1cc2nc(-c3cc(CS(C)(=O)=O)cc(N4CCOC[C@@H]4C)n3)ccc2[nH]1 [Example 6, (S)—N-methyl-1-(5-(6-(3-methylmorpholino)-4-((methylsulfonyl)methyl)pyridin-2-yl)-1H-pyrrolo[3,2-b]pyridin-2-yl)methanamine] | 2.51 to 31.6 nM and 2.51 to 316 nM
4 | CC[C@H]1COCCN1c1cc(C(C)(C)S(=O)(=O)C2CC2)cc(-c2ccc3[nH]c(CNC)cc3n2)n1 [Example 9, (S)-1-(5-(4-(2-(cyclopropylsulfonyl)propan-2-yl)-6-(3-ethylmorpholino)pyridin-2-yl)-1H-pyrrolo[3,2-b]pyridin-2-yl)-N-methylmethanamine] | 2.51 to 316 nM
5 | CC[C@H]1COCCN1c1cc(CS(=O)(=O)C2CC2)cc(-c2ccc3[nH]c(CNC)cc3n2)n1 [Example 10, (S)-1-(5-(4-((cyclopropylsulfonyl)methyl)-6-(3-ethylmorpholino)pyridin-2-yl)-1H-pyrrolo[3,2-b]pyridin-2-yl)-N-methylmethanamine] | 2.51 to 31.6 nM and 2.51 to 316 nM
6 | CC[C@H]1COCCN1c1cc(C2(S(=O)(=O)C3CC3)CC2)cc(-c2ccc3[nH]c(CNC)cc3n2)n1 [Example 11, (S)-1-(5-(4-(1-(cyclopropylsulfonyl)cyclopropyl)-6-(3-ethylmorpholino)pyridin-2-yl)-1H-pyrrolo[3,2-b]pyridin-2-yl)-N-methylmethanamine] | 2.51 to 316 nM
7 | CNCc1cc2nc(-c3cc(C(F)(F)S(C)(=O)=O)cc(N4CCOC[C@@H]4C)n3)ccc2[nH]1 [Example 12, (S)-1-(5-(4-(difluoro(methylsulfonyl)methyl)-6-(3-methylmorpholino)pyridin-2-yl)-1H-pyrrolo[3,2-b]pyridin-2-yl)-N-methylmethanamine] | 2.51 to 316 nM
8 | CC[C@H]1COCCN1c1cc(CS(C)(=O)=O)cc(-c2ccc3[nH]c(CNC)cc3n2)n1 [Example 13, (S)-1-(5-(6-(3-ethylmorpholino)-4-((methylsulfonyl)methyl)pyridin-2-yl)-1H-pyrrolo[3,2-b]pyridin-2-yl)-N-methylmethanamine] | 2.51 to 31.6 nM and 2.51 to 316 nM
9 | CC[C@H]1COCCN1c1cc(C(C)(C)S(C)(=O)=O)cc(-c2ccc3[nH]c(CN)cc3n2)n1 [Example 21, 1-(5-{6-[(3S)-3-ethylmorpholin-4-yl]-4-(2-methanesulfonylpropan-2-yl)pyridin-2-yl}-1H-pyrrolo[3,2-b]pyridin-2-yl)methanamine] | 2.51 to 31.6 nM and 2.51 to 316 nM
10 | CC[C@H]1COCCN1c1cc(C(C)(C)S(C)(=O)=O)cc(-c2ccc3[nH]c(CO)cc3n2)n1 [Example 32] | 2.51 to 31.6 nM and 2.51 to 316 nM

Now from value to compound:

Row | IC50 | Compound
11 | 2.51 to 31.6 nM and 2.51 to 316 nM | CNCc1cc2nc(-c3cc(C(C)(C)S(C)(=O)=O)cc(N4CCOC[C@@H]4C)n3)ccc2[nH]1 [Example 2, (S)—N-methyl-1-(5-(6-(3-methylmorpholino)-4-(2-(methylsulfonyl)propan-2-yl)pyridin-2-yl)-1H-pyrrolo[3,2-b]pyridin-2-yl)methanamine]
12 | 2.51 to 31.6 nM and 2.51 to 316 nM | CNCc1cc2nc(-c3cc(C(C)(C)S(C)(=O)=O)cc(N4CC5CCC(C4)O5)n3)ccc2[nH]1 [Example 4, 1-(5-(6-(8-oxa-3-azabicyclo[3.2.1]octan-3-yl)-4-(2-(methylsulfonyl)propan-2-yl)pyridin-2-yl)-1H-pyrrolo[3,2-b]pyridin-2-yl)-N-methylmethanamine]
13 | 2.51 to 316 nM | CCS(=O)(=O)C(C)(C)c1cc(-c2ccc3[nH]c(CNC)cc3n2)nc(N2CCOC[C@@H]2C)c1 [Example 7, (S)-1-(5-(4-(2-(ethylsulfonyl)propan-2-yl)-6-(3-methylmorpholino)pyridin-2-yl)-1H-pyrrolo[3,2-b]pyridin-2-yl)-N-methylmethanamine]
14 | 2.51 to 31.6 nM and 2.51 to 316 nM | CC[C@H]1COCCN1c1cc(CS(=O)(=O)N(C)C)cc(-c2ccc3[nH]c(CNC)cc3n2)n1 [Example 17, (S)-1-(2-(3-ethylmorpholino)-6-(2-((methylamino)methyl)-1H-pyrrolo[3,2-b]pyridin-5-yl)pyridin-4-yl)-N,N-dimethylmethanesulfonamide]
15 | 2.51 to 31.6 nM and 2.51 to 316 nM | CC[C@H]1COCCN1c1cc(C2(S(C)(=O)=O)CC2)cc(-c2ccc3[nH]c(CNC)cc3n2)n1 [Example 19, [(5-{6-[(3S)-3-ethylmorpholin-4-yl]-4-(1-methanesulfonylcyclopropyl)pyridin-2-yl}-1H-pyrrolo[3,2-b]pyridin-2-yl)methyl](methyl)amine]
16 | 2.51 to 316 nM | CNCc1cc2nc(-c3cc(C4(S(C)(=O)=O)CC4)cc(N4CCOC[C@@H]4C)n3)ccc2[nH]1 [Example 20, ({5-[4-(1-methanesulfonylcyclopropyl)-6-[(3S)-3-methylmorpholin-4-yl]pyridin-2-yl]-1H-pyrrolo[3,2-b]pyridin-2-yl}methyl)(methyl)amine]
17 | 2.51 to 31.6 nM and 2.51 to 316 nM | CC[C@H]1COCCN1c1cc(C2(S(C)(=O)=O)CCOCC2)cc(-c2ccc3[nH]c(CN)cc3n2)n1 [Example 23, 1-(5-{6-[(3S)-3-ethylmorpholin-4-yl]-4-(4-methanesulfonyloxan-4-yl)pyridin-2-yl}-1H-pyrrolo[3,2-b]pyridin-2-yl)methanamine]
18 | 2.51 to 31.6 nM and 2.51 to 316 nM | CNCc1cc2nc(-c3cc(CS(C)(=O)=O)cc(N4CC5CCC(C4)O5)n3)ccc2[nH]1 [Example 25, ({5-[4-(methanesulfonylmethyl)-6-{8-oxa-3-azabicyclo[3.2.1]octan-3-yl}pyridin-2-yl]-1H-pyrrolo[3,2-b]pyridin-2-yl}methyl)(methyl)amine]
19 | 2.51 to 31.6 nM and 2.51 to 316 nM | CC[C@H]1COCCN1c1cc(C(C)(C)S(N)(=O)=O)cc(-c2ccc3[nH]c(CNC)cc3n2)n1 [Example 28, 2-{2-[(3S)-3-ethylmorpholin-4-yl]-6-{2-[(methylamino)methyl]-1H-pyrrolo[3,2-b]pyridin-5-yl}pyridin-4-yl}propane-2-sulfonamide]
20 | 2.51 to 31.6 nM and 2.51 to 316 nM | CC[C@H]1COCCN1c1cc(CS(=O)(=O)NC)cc(-c2ccc3[nH]c(CNC)cc3n2)n1 [Example 30, 1-{2-[(3S)-3-ethylmorpholin-4-yl]-6-{2-[(methylamino)methyl]-1H-pyrrolo[3,2-b]pyridin-5-yl}pyridin-4-yl}-N-methylmethanesulfonamide]
21 | 2.51 to 31.6 nM and 2.51 to 316 nM | CC[C@H]1COCCN1c1cc(C2(S(=O)(=O)N(C)C)CCOCC2)cc(-c2ccc3[nH]c(CNC)cc3n2)n1 [Example 31, 4-{2-[(3S)-3-ethylmorpholin-4-yl]-6-{2-[(methylamino)methyl]-1H-pyrrolo[3,2-b]pyridin-5-yl}pyridin-4-yl}-N,N-dimethyloxane-4-sulfonamide]
22 | 2.51 to 31.6 nM and 2.51 to 316 nM | CC[C@H]1COCCN1c1cc(C2(S(C)(=O)=O)CCOCC2)cc(-c2ccc3[nH]c(CO)cc3n2)n1 [Example 33, (5-{6-[(3S)-3-ethylmorpholin-4-yl]-4-(4-methanesulfonyloxan-4-yl)pyridin-2-yl}-1H-pyrrolo[3,2-b]pyridin-2-yl)methanol]
